Experimental data taken from patent US20130072506A1, “6,8-DISUBSTITUTED PURINE COMPOSITIONS” (priority 2011, published 2013).
Read-outs that look alike come from different tables or passages of the source.

Assays:
Assay in all cases: In vitro cytotoxic activity (metabolisation of Calcein AM)
Format in all cases: cell-based, human
[1] = test system: T-lymphoblastic leukemia cell line CEM; settings: CEM cells, 72 hours incubation, called GI50, read-out: Cell line tested/IC50 (μmol/L) CEM
From the text: (§1) In vitro Cytotoxic Activity (Metabolisation of Calcein AM). Because toxic compounds negatively influence metabolic processes of cells, many standard cytotoxicity assays are based on measurement of metabolisation rate of various artificial substrates. Resulting product is then quantified, for example, by means of spectrometry. The assays can be easily modified for use in 96-well plates. For evaluation of cytotoxicity of the 6,8-disubstituted purines of this invention, a microtiter assay based on quantification of metabolisation of Calcein AM was used. The assay is widely used in drug screening programs and in chemosensitivity testing. In live cells, Calcein AM is enzymatically hydrolysed and accumulation of resulting calcein is manifested by green fluorescence.
(§2) The following human cell lines were used for routine screening of the compounds: normal diploid fibroblasts BJ, T-lymphoblastic leukemia cell line CEM, promyelocytic leukemia cell line HL-60, erytroid leukemia cell line K-562, breast carcinoma cell line MCF-7, osteosarcoma cell line HOS and melanoma cell line G-361. The cells were maintained in Nunc/Corning 80 cm^2 plastic tissue culture flasks and cultured in cell culture medium (DMEM with 5 g/l glucose, 2 mM glutamine, […] penicillin, 100 mmg/ml streptomycin, 10% fetal calf serum and sodium bicarbonate).
(§3) The cell suspensions were prepared and diluted according to the particular cell type and the expected target cell density (2.500-30.000 cells per well based on cell growth characteristics) and pipetted (80 μl) into 96-well plates. Inoculates were allowed a pre-incubation period of 24 hours at 37° C. and 5% CO2 for stabilization. Tested compound was added in total volume of […] of water at time zero. Usually, test compound was evaluated at six 3-fold dilutions. In routine testing, the highest concentration tested was 100 μM, but it could have been adjusted because of limited solubility of a compound. All drug concentrations were tested in triplicates.
(§4) Incubations of cells with the test compounds lasted for 72 hours at 37° C., in 5% CO2 atmosphere and 100% humidity. At the end of incubation period Calcein AM in PBS was added into final concentration of 1 μg/ml. After another 1 hour of incubation fluorescence (FD) was measured with the Labsystem FIA Reader Fluoroscan Ascent (UK). Growth inhibition (GI) was estimated using the following equitation: GI=(mean FDdrug exposed wells−mean FDblank)/(mean FDcontrol wells−mean FDblank)×100%. The GI50 value, the drug concentration causing 50% reduction of Calcein AM conversion, was calculated from the obtained dose response curves.

[2] = test system: breast carcinoma cell line MCF-7; settings: MCF7 cells, 72 hours incubation, called GI50, read-out: Cell line tested/IC50 (μmol/L) MCF7
From the text: as §1, §2, §3, §4

[3] = test system: erytroid leukemia cell line K-562; settings: 72 hours incubation, called GI50, read-out: Cell line tested/IC50 (μmol/L) K-562
From the text: as §1, §2, §3, §4

[4] = test system: melanoma cell line G-361; settings: G-361 cells, 72 hours incubation, called GI50, read-out: Cell line tested/IC50 (μmol/L) G-361
From the text: as §1, §2, §3, §4

[5] = test system: normal diploid fibroblasts BJ; settings: BJ cells, 72 hours incubation, called GI50, read-out: Cell line tested/IC50 (μmol/L) BJ
From the text: as §1, §2, §3, §4

[6] = test system: osteosarcoma cell line HOS; settings: HOS cells, 72 hours incubation, called GI50, read-out: Cell line tested/IC50 (μmol/L) HOS
From the text: as §1, §2, §3, §4

[7] = Homo sapiens, K562, K-562 cells

Measured: IC50

CC(=CCNc1ncnc2nc(Br)[nH]c12)CO [Compound 3]
> 50 µmol/L: [1] | [2] | [3]; K-562 cells | [4] | [5] | [6]

Nc1nc2ncnc(NCc3ccccc3Br)c2[nH]1 [Compound 93]
> 50 µmol/L: [1] | [2] | [3]; K-562 cells | [4] | [5] | [6]

COc1nc2ncnc(NCC=C(C)CO)c2[nH]1 [Compound 122]
> 50 µmol/L: [1] | [2] | [3]; K-562 cells | [4] | [5] | [6]

COc1nc2ncnc(NCc3cccc(OC)c3O)c2[nH]1 [Compound 130]
> 50 µmol/L: [1] | [2] | [3]; K-562 cells | [4] | [5] | [6]

Sc1nc2ncnc(NCc3ccco3)c2[nH]1 [Compound 137, 6-furfurylamino-8-mercaptopurine]
> 50 µmol/L: [1]; Homo sapiens, CCRF-CEM | [2]; Homo sapiens | [3]; [7] | [4]; Homo sapiens | [5]; Homo sapiens | [6]; Homo sapiens

CSc1nc2ncnc(NCc3ccco3)c2[nH]1 [Compound 147, 6-furfurylamino-8-methylthiopurine]
> 50 µmol/L: [1]; Homo sapiens, CCRF-CEM | [2]; Homo sapiens | [3]; [7] | [4]; Homo sapiens | [5]; Homo sapiens | [6]; Homo sapiens

Oc1nc2ncnc(NCc3ccco3)c2[nH]1 [Compound 166]
> 50 µmol/L: [1] | [2] | [3]; K-562 cells | [4] | [5] | [6]

CC(=CCNc1ncnc2nc(O)[nH]c12)CO [Compound 168]
> 50 µmol/L: [1] | [2] | [3]; K-562 cells | [4] | [5] | [6]

Oc1cccc(CNc2ncnc3nc(O)[nH]c23)c1 [Compound 169]
> 50 µmol/L: [1] | [2] | [3]; K-562 cells | [4] | [5] | [6]

COc1cccc(CNc2ncnc3nc(O)[nH]c23)c1 [Compound 170]
> 50 µmol/L: [1] | [2] | [3]; K-562 cells | [4] | [5] | [6]

Oc1nc2ncnc(Nc3ccccc3)c2[nH]1 [Compound 171]
> 50 µmol/L: [1] | [2] | [3]; K-562 cells | [4] | [5] | [6]

COc1cccc(Nc2ncnc3nc(O)[nH]c23)c1 [Compound 172]
> 50 µmol/L: [1] | [2] | [3]; K-562 cells | [4] | [5] | [6]

N#Cc1nc2ncnc(NCc3ccco3)c2[nH]1 [Compound 173]
> 50 µmol/L: [1] | [2] | [3]; K-562 cells | [4] | [5] | [6]

NCc1nc2ncnc(NCc3ccco3)c2[nH]1 [Compound 180]
> 50 µmol/L: [1] | [2] | [3]; K-562 cells | [4] | [5] | [6]

NCc1nc2ncnc(NCc3cccc(F)c3)c2[nH]1 [Compound 182]
> 50 µmol/L: [1] | [2] | [3]; K-562 cells | [4] | [5] | [6]

COc1cccc(CNc2ncnc3nc(CN)[nH]c23)c1 [Compound 183]
> 50 µmol/L: [1] | [2] | [3]; K-562 cells | [4] | [5] | [6]

NCc1nc2ncnc(Nc3ccccc3)c2[nH]1 [Compound 184]
> 50 µmol/L: [1] | [2] | [3]; K-562 cells | [4] | [5] | [6]

COc1ccccc1Nc1ncnc2nc(CN)[nH]c12 [Compound 185]
> 50 µmol/L: [1] | [2] | [3]; K-562 cells | [4] | [5] | [6]

COc1cccc(Nc2ncnc3nc(CN)[nH]c23)c1 [Compound 186]
> 50 µmol/L: [1] | [2] | [3]; K-562 cells | [4] | [5] | [6]

COC(=O)c1nc2ncnc(NCc3ccco3)c2[nH]1 [Compound 187, 6-furfurylamino-8-(methoxycarbonyl)purine]
> 50 µmol/L: [1]; Homo sapiens, CCRF-CEM | [2]; Homo sapiens | [3]; [7] | [4]; Homo sapiens | [5]; Homo sapiens | [6]; Homo sapiens

CCOC(=O)c1nc2ncnc(NCc3ccco3)c2[nH]1 [Compound 194, 6-furfurylamino-8-(ethoxycarbonyl)purine]
> 50 µmol/L: [1]; Homo sapiens, CCRF-CEM | [2]; Homo sapiens | [3]; [7] | [4]; Homo sapiens | [5]; Homo sapiens | [6]; Homo sapiens

O=C(O)c1nc2ncnc(NCc3ccco3)c2[nH]1 [Compound 201]
> 50 µmol/L: [1] | [2] | [3]; K-562 cells | [4] | [5] | [6]

NCCCNc1nc2ncnc(NCc3ccco3)c2[nH]1 [Compound 208, 6-furfurylamino-8-(aminopropylamino)purine]
> 50 µmol/L: [1]; Homo sapiens, CCRF-CEM | [2]; Homo sapiens | [3]; [7] | [4]; Homo sapiens | [5]; Homo sapiens | [6]; Homo sapiens
